Like-named read-outs stand apart in the source and are kept apart here.
Experiments:
[1] = biological target: T1, CYP51fx (sterol 14α-demethylase) (Methylococcus capsulatus, UniProt Q603T8); assay: UV-visible spectral titration; format: binding
T1 sequence (Q603T8 1-551): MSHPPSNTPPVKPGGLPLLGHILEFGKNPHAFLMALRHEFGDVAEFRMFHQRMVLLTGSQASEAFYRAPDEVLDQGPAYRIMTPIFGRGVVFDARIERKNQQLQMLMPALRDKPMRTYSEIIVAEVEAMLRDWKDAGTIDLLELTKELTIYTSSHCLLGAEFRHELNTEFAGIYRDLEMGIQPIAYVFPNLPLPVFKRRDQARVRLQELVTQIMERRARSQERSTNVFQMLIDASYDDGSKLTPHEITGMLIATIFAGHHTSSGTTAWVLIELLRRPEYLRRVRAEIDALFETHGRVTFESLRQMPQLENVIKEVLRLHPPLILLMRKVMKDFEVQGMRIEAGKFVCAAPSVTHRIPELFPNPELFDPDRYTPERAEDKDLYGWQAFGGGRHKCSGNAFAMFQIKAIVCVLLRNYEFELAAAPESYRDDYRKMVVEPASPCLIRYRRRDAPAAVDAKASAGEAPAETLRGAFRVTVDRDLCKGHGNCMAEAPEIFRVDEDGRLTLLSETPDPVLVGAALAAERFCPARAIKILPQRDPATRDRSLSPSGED

[2] = biological target: T1, CYP51fx (sterol 14α-demethylase); assay: UV-visible spectral titration; format: binding; remark: listed apart in the source
[3] = biological target: T1, CYP51fx (sterol 14α-demethylase); assay: UV-visible spectral titration; format: binding; remark: listed apart in the source
[4] = biological target: T1, CYP51fx (sterol 14α-demethylase); format: biochemical

Row | SMILES | Kd [2] | Kd [3] | further results
1 | CC(C)=CCC[C@@H](C)[C@H]1CC[C@@]2(C)[C@@H]3CC=C4[C@@H](CC[C@H](O)C4(C)C)[C@]3(C)CC[C@]12C [cucurbitadienol] |  |  | Kd [1]: 670 nM
2 | CC(C)=CCC[C@@H](C)[C@H]1CC[C@@]2(C)[C@@H]3CC[C@H]4C(C)(C)[C@@H](O)CC[C@@]45C[C@@]35CC[C@]12C [cycloartenol] | 460 nM |  | 
3 | C=C(CC[C@@H](C)[C@H]1CC[C@@]2(C)C3=C(CC[C@]12C)[C@@]1(C)CC[C@H](O)C(C)(C)[C@@H]1CC3)C(C)C [eburicol] |  | 48 ± 4 nM | 
4 | CC(C)=CCC[C@@H](C)[C@H]1CC[C@@]2(C)C3=C(CC[C@]12C)[C@@]1(C)CC[C@H](O)C(C)(C)[C@@H]1CC3 [lanosterol] |  | 94 ± 11 nM | 
5 | C=C(CC[C@@H](C)[C@H]1CC[C@@]2(C)C3=C(CC[C@]12C)[C@@]1(C)CC[C@H](O)[C@@H](C)[C@@H]1CC3)C(C)C [obtusifoliol] |  |  | reconstituted 14α-demethylase turnover of radiolabeled sterol with E. coli flavo [4]: 1.2 min⁻¹
6 | CC(C)=CCC[C@@H](C)[C@H]1CC[C@@]2(C)[C@@H]3CC[C@H]4C(C)(C)[C@@H](O)CC[C@]4(C)C3=CC[C@]12C [parkeol] | 260 nM |  | 

From article PMC7947880 (Molecular Biology and Evolution, 2020)
